Experimental data as given in patent US5786386A, “Antibacterial and fungicidal agent” (Takasago International Corporation, priority 1995, dated 1998).

Assays:
Format in all cases: in vivo
Hartley guinea pigs [1] = experiment: Test Example 3 (safety test), primary stimulation to the skin; settings: 1 wt % solution in acetone; female guinea pigs
Protocol: (§1) Test Example 3 (safety test) Method Five (5) or ten (10) Hartley guinea pigs (female, body weight: 350-400 g) are used. A 1 wt % solution of each test compound in acetone was prepared, and the solution was tested with respect to its sensitizing potential, primary stimulation to the skin, and photo-toxicity. As test compounds, three compounds, i.e., compound Nos. 1, 10, and 14 in Table 1, were used.

Hartley guinea pigs [2] = experiment: Test Example 3 (safety test), sensitization, maximization method; settings: 1 wt % solution in acetone; induction at 10 wt %; female guinea pigs
Protocol: as §1, with “were used. The sensitization test was performed in accordance with the maximization method proposed by Magnusson [Magnusson, B and Kligman, A.M.,; "The identification of contact allergens by animal assay. The guinea pig maximization test" (J. Inv. Derm., 52, p268-276 (1969))]. The induction of sensitization was performed at a concentration of 10 wt %.” for “were used.”

Hartley guinea pigs [3] = experiment: Test Example 3 (safety test), photo-toxicity; settings: 1 wt % solution in acetone; light source FL-40S.BLB (300-400 nm); female guinea pigs
Protocol: Test Example 3 (safety test)
Five (5) or ten (10) Hartley guinea pigs (female, body weight: 350-400 g) are used. A 1 wt % solution of each test compound in acetone was prepared, and the solution was tested with respect to its sensitizing potential, primary stimulation to the skin, and photo-toxicity.
As test compounds, three compounds, i.e., compound Nos. 1, 10, and 14 in Table 1, were used.
The positive control compound used for the photo-toxicity was an ethanol solution containing 100 ppm of 8-methoxypsoralen (product of Aldrich). The light source used was FL-40S.BLB (300-400 nm; manufactured by Toshiba).

| SMILES | Primary stimulation (Hartley guinea pigs [1]) | Sensitization (Hartley guinea pigs [2]) | Photo-toxicity (Hartley guinea pigs [3]) |
| --- | --- | --- | --- |
| CCCCCCCCCCCCNCc1ccc2c(c1)OCO2 [Compound No. 1] | 0/5 | 0/10 | 0/5 |
| CCCCCCCCCCCCNCc1ccc(OC)c(O)c1 [Compound No. 10, N-lauryl-3-hydroxy-4-methoxybenzylamine] | 0/5 | 0/10 | 0/5 |
| CCCCCCCCCCCCN(C)Cc1cc(OC)c(OC)cc1OC [Compound No. 14] | 0/5 | 0/10 | 0/5 |
